The values that follow come from patent publication US20170191032A1, “IDENTIFICATION AND ISOLATION OF NEURAL STEM CELLS AND NEUROSPHERE INITIATING CELLS” (The Board of Regents of the University of Texas System, priority 2014, published 2017).

Series [1] deals with GEPCOT cells. The conditions noted are these: 3.0 mM EDTA in staining medium (slight excess over 2.7 mM divalent cations).
Procedure: In the inventors' experiments, the staining medium the inventors employed contained 3.0 mM EDTA, enough to neutralize 2.7 mM of divalent cations in the staining medium (with a small surplus). […] The inventors pre-diluted 0.5M EDTA (made from Na2H2EDTA, pH 8.0) to 77.7 mM (309 mOsm) before adding it to the staining medium.
SVZ cell preparation. SVZs from adult (8-60 week old) mice were dissected as described (Mirzadeh et al., 2010). SVZs were minced and digested with 300 μl of trypsin solution (Ca and Mg-free HBSS, 10 mM HEPES, 0.5 mM EDTA, 0.25 mg/mL trypsin (EMD Millipore), 10 μg/mL DNase I (Roche), pH 7.6) at 37° C. for 20 minutes. Digestion was quenched with three volumes of staining medium (440 ml Leibovitz L-15 medium, 50 ml water, 5 ml 1M HEPES pH 7.3-7.4, 5 ml 100× Pen-Strep, 20 ml 77.7 mM EDTA pH 8.0 [prepared from Na2H2EDTA], 1 g bovine serum albumin [Sigma A7030]) containing 100 μg/ml trypsin inhibitor (Sigma T6522) and 10 μg/ml DNase I (Roche).
A further series relates to SVZ cells. Briefly: TMZ regeneration assay: total and dividing (BrdU) SVZ cells. The format is in vivo, mouse. The text has this: (§1) All data represent mean ±s.d.
The test system of a further series is NICs. Briefly: TMZ regeneration assay: neurosphere-initiating cells (NICs). It counts as in vivo, mouse.
From the text: as §1
(§2) The cell suspension was then filtered through a 45-micron mesh, counted on a hemocytometer, and added to culture or processed for flow cytometry. […] For adherent colony formation, Tg(Ubc-GFP) SVZ cells were co-cultured with 80-90% confluent nontransgenic neonatal SVZ-derived astrocytes isolated and passaged twice prior to the experiment. GFP fluorescence was used to assess colony formation after 12-20 days in culture.

Series [2] relates to GEPCOT cells. Briefly: TMZ regeneration assay: GEPCOT cells per SVZ by flow cytometry. The conditions noted are these: for number of unlabeled GEPCOTs per SVZ: Ascl1CreERT2 reporter mice, tamoxifen then TMZ.
Procedure: TMZ regeneration assay. TMZ (temozolomide; Sigma T2577) was dissolved in 25% DMSO/75% 0.9% saline solution at 10 mg/ml by heating briefly to 90-100° C., then shaking and rapidly cooling. Mice were injected at 100 mg/kg/day for three consecutive days then allowed to recover for 3-90 days before analysis. Mice with enlarged spleen or thymus (sometimes present at 90 days after TMZ treatment) were excluded from analysis.
To stain SVZ cells with the combination of markers used to isolate GEPCOT or pre-GEPCOT cells, dissociated SVZ cells were centrifuged (220 g, 4 min, 4° C.) and resuspended in 100 μl staining medium per brain. Then the following antibodies were added: BV421 anti-Ter119 (Biolegend 116233, 1/100), BV421 anti-CD45 (Biolegend 103133, 1/100), APC-eFluor 780 anti-CD24 (eBioscience 47-0242-82, 1/200), 5A5 ascites (anti-PSA-NCAM; Developmental Studies Hybridoma Bank, 1/100), O4 ascites (1/200), anti-PlexinB2 (eBioscience 14-5665-82, 1/100), biotinylated anti-EGFR (R&D Systems BAF1280, 1/200), anti-Glast (Miltenyi Biotec 130-095-822, 1/10), and DAPI (50 μg/ml, 1/100). After adding antibodies, the cells were incubated on ice for 45 minutes, then washed with 2.5 ml fresh staining medium and pelleted (220 g for 4 minutes at 4° C.) and resuspended in secondary antibodies. Typically, the inventors used the following combination: APC anti-mouse IgG2a (Jackson Immunoresearch 115-135-206,1/200), PE anti-hamster IgG (Jackson Immunoresearch 127-115-160, 1/200), PE-Cy7 anti-mouse IgM (eBioscience 25-5790-82, 1/100), BV605-Streptavidin (BD Biosciences 563260, 1/200). However, when analyzing mice expressing tdTomato, the inventors used the following alternative secondary antibodies: PerCP-eFluor 710 anti-mouse IgG (eBioscience 46-4010-82, 1/100), APC anti-hamster IgG (Jackson Immunoresearch 127-135-160, 1/200), PE-Cy7 anti-mouse IgM (eBioscience 25-5790-82, 1/100), and BV605-Streptavidin (BD Biosciences 563260, 1/200). Cells were stained with secondary antibodies on ice for 45 minutes, then washed and pelleted as above, and analyzed on the FACSAria in a volume of 200 μl per brain.
Series [3] can be described thus: Body mass after TMZ treatment. The format is in vivo, mouse. The following applies: three days after TMZ, 100 mg/kg/day i.p. for 3 consecutive days.
The test system of a further series is adult SVZ cells. Briefly: Neurosphere formation (clonogenesis) of adult SVZ cells with culture additives. It counts as cell-based, mouse.
From the text: Rock inhibitor (Y-27632) and IGF1 increase clonogenesis after sorting. The process of being sorted has a negative effect on neurosphere formation from adult SVZ cells: at the beginning of their experiments the inventors observed a 3-fold loss of activity in sorted live SVZ cells compared to crude unsorted cells. […] The inventors wondered how to sort gently to overcome the fragility of adult SVZ cells.
(§3) The mechanisms underlying these effects are unclear but may involve promotion of cell survival after sorting or repression of BMP signaling (Hsieh et al., 2004). When using both these culture additives, there was little difference between sorted live SVZ cells and an equal number of cells added to culture by pipette in terms of the numbers of neurospheres they made.
After adding 10% CEE to the culture medium, sorted cell-derived primary neurospheres were indistinguishable in size and number from neurospheres cultured from cells pipetted into culture.
as §2

The subject of another series is neonatal SVZ cells. Briefly: Neurosphere formation of neonatal SVZ cells with culture additive. It counts as cell-based, mouse. The conditions noted are these: 10 μM.
From the text: as §3

The mark [4] stands for this setting: three days after TMZ (100 mg/kg/day i.p., 3 days).

As to `O=C(O)CN(CCN(CC(=O)O)CC(=O)O)CC(=O)O` [EDTA], the “effect on the yield of GEPCOT cells” value in the series on GEPCOT cells [1] is recorded as 2-3 fold.

Regarding `Cn1nnc2c(C(N)=O)ncn2c1=O` [TMZ, temozolomide], the “number of dividing SVZ cells, recovery as % of normal” value in the series with SVZ cells (90 days after TMZ treatment) was 50 % of normal. In addition, the “reduction in the number of dividing SVZ cells, based on BrdU incorporation” value with SVZ cells (setting [4]) is recorded as 80%. In addition, the “reduction in the total number of cells per SVZ” value with SVZ cells (setting [4]) was determined as 23%. Also, in the series with NICs (16 days after TMZ treatment), the “NICs recovered, % of normal levels” value is reported as 20 % of normal. The “NICs recovered, % of normal” value in the series on NICs (90 days after TMZ) was 55 % of normal. Moreover, the “NICs remaining relative to saline-treated control mice” value with NICs (three days after TMZ) came out at 0.7%. The “GEPCOTs recovered, % of normal levels” value with GEPCOT cells [2] (16 days after TMZ treatment) is reported as 32 % of normal; in the series on GEPCOT cells [2] (90 days after TMZ treatment) it was 55 % of normal. The results for the “number of unlabeled GEPCOTs per SVZ” value in the series on GEPCOT cells [2] (3 days after TMZ) and in the series on GEPCOT cells [2] (35 days after TMZ) were 120±50 and 640±210, respectively. Further, the “GEPCOTs remaining relative to saline-treated control mice” value with GEPCOT cells [2] (three days after TMZ treatment) came to 10%. Besides, the “loss of body mass as compared to before TMZ treatment” value in series [3] was “less than 3%”.

Consider “IGF1: IGF-1 growth factor (R&D Systems 291-G1) added to culture medium”, for which the clonogenesis after sorting entry in the series with adult SVZ cells (20 ng/ml in culture medium, in addition to Y-27632) is recorded as “further improved clonogenesis after sorting”.

For the compound Y-27632 hydrochloride, the “effect on neurosphere formation” value is recorded as “did not have any effect” with neonatal SVZ cells (crude neonatal SVZ cells); “did not have any effect” in the series on neonatal SVZ cells (sorted neonatal SVZ cells); “did not have any effect” with adult SVZ cells (10 μM, adult SVZ cells pipetted into the culture medium). Besides, the “increase in neurosphere formation” value in the series with adult SVZ cells (10 μM in culture medium, adult cells after sorting) was “approximately two-fold”.
